Experimental findings from patent US20220281868A1, “MACROCYCLIC DERIVATIVES AS FACTOR XIA INHIBITORS” (MEDSHINE DISCOVERY INC., priority 2019, published 2022) are described below.

pIC50: −log10 of the molar value.

The target of one assay is T1, human factor XIa (Homo sapiens, UniProt P03951).
T1 construct: Enzyme, Human Factor XIa (Human Factor XIa, Abcam, Cat #ab62411); purchased Abcam ab62411
Nature of the assay: Screening test of enzyme inhibitory activity on hFXIa. It is filed as biochemical. To be noted: substrate S-2366/S-2306, 37° C. 10 minutes, absorbance 405 nm, pH 7.4. As for the experimental part: 1. Screening Test of Enzyme Inhibitory Activity on hFXIa (Human Factor XIa)
(§1) Purpose of the Experiment:
Detection of the inhibitory activity of the compounds of the present disclosure on human factor XIa
1) Experimental buffer pH 7.4
100 mM Tris-HCl (Sigma, catalog number: T2663, batch number: SLBG2775)
200 mM NaCl (Sigma, catalog number: 13423, batch number: SZBB2360V)
2) Enzymes and Substrates
Enzyme, Human Factor XIa (Human Factor XIa, Abcam, Cat #ab62411): Total amount: 50 μg. Dissolved with experimental buffer and packed separately.
Substrate S-2366 (DiaPharma, catalog number: S821090): 25 mg
3) Instruments and Consumables
SpectraMax 340PC Multifunctional Microplate Reader (Molecular Devices)
384-well black transparent reaction plate (Corning Cata #3712)
Echo Liquid Workstation (Labcyte)
Echo 384-well polypropylene compound plate (Labcyte-P-05525) was used.
Echo 384 Shallow Pore Polypropylene Compound plate (Labcyte-LP-0200, 2.5-12 μL) was used.
Multidrop automatic dispenser (Thermo Scientific)
Multidrop Consumables (Thermo Scientific-24073290) […]
7) The reaction plate was placed in SpectraMax 340PC and incubated at 37° C. for 10 minutes, and the absorbance was detected at 405 nm.
8) Data were analyzed using GraphPad Prism 5.0
% Inhibition rate=100%×[1−(sample reading-low signal average value)/(high signal average value-low signal average value)]
IC50 was analyzed using 4-factor linear regression: […]

For a further assay, the system named is human plasma. Nature of the assay: Determination of aPTT (activated partial thromboplastin time) in human plasma in vitro. To be noted: coagulation time.
Description: 2. Determination of aPTT (Activated Partial Thromboplastin Time) in Human Plasma In Vitro
as §1
Detection of the anticoagulant effect of the compounds of the present disclosure on human plasma in vitro
1) Coagulation quality control plasma: produced by TECO, Germany, batch number: 093B-J186A
2) aPTT test solution: produced by TECO, Germany, batch number: 20002745; CaCl2): produced by TECO, Germany, batch number: 031N-J073A; DMSO: Sangon Bioengineering (Shanghai) Co., Ltd., batch number: BB02BA0001
3) Instrument: Germany Meichuang MC-4000 blood coagulation instrument
1) Sample solution preparation: 10 mM compound stock solution was prepared with DMSO, and then serially diluted with DMSO as follows: […], 2500, 625, 156.25, 39.06, 9.76, 2.44 μM; then series of concentrations were diluted with tris(hydroxymethylaminomethane) buffer (containing 5% Tween 80) 10 times for use, and the drug to plasma volume ratio was 1:9 during detection. […]
4) Test detection: According to the instructions of the kit, the sample solution to be tested or the reference solution were added into the 37° C. preheated colorimetric cup, preheated at 37° C. for 2 min, aPTT reagent was added, incubated at 37° C. for 3 min, 0.02 M CaCl2 (preheated at 37° C.) was added, and the coagulation time was recorded.

T1 sequence (P03951 388-625 limits assumed): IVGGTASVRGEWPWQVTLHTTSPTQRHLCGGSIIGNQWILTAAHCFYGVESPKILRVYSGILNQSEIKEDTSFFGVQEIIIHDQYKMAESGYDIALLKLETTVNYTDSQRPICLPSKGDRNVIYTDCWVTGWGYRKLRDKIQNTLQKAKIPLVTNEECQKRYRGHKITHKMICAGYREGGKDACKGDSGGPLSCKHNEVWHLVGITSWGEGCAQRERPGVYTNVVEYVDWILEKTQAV
T1 sequence (P03951 19-387 partner limits assumed): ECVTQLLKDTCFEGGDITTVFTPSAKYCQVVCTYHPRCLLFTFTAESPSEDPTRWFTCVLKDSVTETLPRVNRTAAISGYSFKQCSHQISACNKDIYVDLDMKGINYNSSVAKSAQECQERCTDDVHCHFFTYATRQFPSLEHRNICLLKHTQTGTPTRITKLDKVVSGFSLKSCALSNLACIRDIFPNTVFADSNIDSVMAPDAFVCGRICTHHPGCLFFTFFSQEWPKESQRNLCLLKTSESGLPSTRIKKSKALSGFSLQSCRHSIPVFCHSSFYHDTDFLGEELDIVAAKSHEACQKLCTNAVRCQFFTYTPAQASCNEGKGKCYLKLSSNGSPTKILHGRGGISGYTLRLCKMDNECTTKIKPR

With `C[C@@H]1CCCC(c2coc(-c3cc(Cl)ccc3-n3cc(C#N)nn3)cc2=O)c2cc(ccn2)-c2c(cnn2C(F)F)NC1=O` (stereo partly shown) [Compound 4], on human factor XIa, the pIC50 was 8.64.

`[2H]C([2H])([2H])n1ncc2c1-c1ccnc(c1)C(c1coc(-c3c(-n4cc(Cl)nn4)ccc(Cl)c3F)cc1=O)CCCC(C)C(=O)N2` (stereo not shown) [Compound 8-1] had a pIC50 against human factor XIa of 8.46. The same compound yielded an aPTT2x in the assay on human plasma of 4.94 µM.

In turn, Enoxaparin [reference compound] returned an aPTT2x in the assay on human plasma of 4.61 µM.

A word on the pIC50: it is −log10 of the IC50, conventionally taken in molar units. A high value points to a low IC50.
